Laboratory results published in patent US9868707B2, “Small molecule agonists of neurotensin receptor 1” (SANFORD-BURNHAM MEDICAL RESEARCH INSTITUTE, priority 2012, dated 2018).

Target: NTR1 (Homo sapiens, UniProt P30989)
Assay: NTR1 high-content imaging (HCS) dose response, NTR1-U2OS cells
Format: cell-based
Design: host or cells: U2OS osteosarcoma
Settings: n = 4 unless otherwise noted; for EC50: Ave. ± S.E.M., read-out: HCS NTR1 Potency EC50; for Emax: read-out: HCS NTR1 Potency Emax
Excerpt: The cell lines utilized in the high-content imaging assays, which include the NTR1-, NTR2-, and GPR35-U2OS osteosarcomas, were obtained from the laboratory of Dr. Lawrence Barak at the Duke University Medical Center. The media used in the culture of the cell lines, as well as the assays themselves, consisted of Minimum Essential Medium (15-010-CM) and L-glutamine (25-005-CL) from Cellgro/Mediatech (Manassas, Va.), fetal bovine serum (SH30396.03) from Hyclone (Logan, Utah), penicillin-streptomycin solution (PS-20) from Omega Scientific in Tarzana, Calif., G418 (ant-gn-1) from Invivogen (San Diego, Calif.), and zeocin (R250-01) from Invitrogen (Carlsbad, Calif.). Cell lines were cultured in T225 tissue culture flasks (431082) supplied by Corning (Corning, N.Y.). Additional reagents employed include Dulbecco's Phosphate-Buffered Saline (DPBS) (21-031CV) from Cellgro/Mediatech, Trypsin-EDTA 0.05% (25300) from Invitrogen, paraformaldehyde (30528954) from Acros Organics (Geel, Belgium), Hoechst 33342 (H3570) from Invitrogen. The high-content assays were run in 1536-well plates (29326) supplied by Aurora Biotechnology (Poway, Calif.) and utilized aluminum plate seals (T592100) from E&K Scientific (Santa Clara, Calif.).
The neurotensin 1 peptide (N6383) from Sigma-Aldrich (St. Louis, Mo.) was used as a positive control in the NTR1 primary HCS assay. For the NTR2 selectivity assay, the non-specific, small molecule 3-(4-fluorophenyl)-7,8-dimethoxy-5-(4-methylbenzyl)-5H-pyrazolo[4,3-c]quinolone which was synthesized internally was used as a positive control. The GPR35 selectivity screen utilized zaprinast (ALX430-020-M010) from Alexis Biochemicals (Farmingdale, N.Y.) as a control.
The high-content imaging based NTR1 primary screen in 1536-well format was utilized to assay the MLSMR library of chemical entities in the following manner. On day one, 4 uL of a cell suspension containing 350,000 NTR1-U2OS cells per mL is added to each well of a 1536-well assay plate. Cells are plated in MEM medium containing 2.5% Fetal Bovine Serum, 1% Penicillin/Streptomycin solution, 1% L-Glutamine, 400 ug/mL G418, and 200 ug/mL Zeocin. The assay plates are then incubated overnight at 37° C., under 5% CO2. Following the overnight incubation, a volume of 60 nL of the compounds at 2 mM in DMSO (final 20 μM, 1% DMSO) was transferred to columns 5-48 of the assay plates using a LabCyte Echo Liquid Handler. Next, 60 nL of DMSO were dispensed to columns 1-4, which served as the positive and neutral control wells. […] The assay plates were centrifuged on an Eppendorf 5810 centrifuge at 1000 rpm for 1 min to ensure even liquid levels in the wells of the assay plates. The assay plates were then returned to the incubator for 1 hour. Following the hour-long incubation at 37° C., the cells in each well were fixed with 4 uL of 6% paraformaldehyde added with a Multidrop Combi. The assay plates were centrifuged as before and incubated at room temperature for 1 hour. On the Kalypsys, plates were then aspirated down to 2.5 uL per well and washed twice with 11 uL per well of DPBS, followed by a final aspiration to 2.5 uL per well. On the Combi dispenser, 5 uL of 5 ug/mL Hoechst 33342 diluted in DPBS was added to each well of assay plates. The plates were again centrifuged as previously described, sealed, and incubated for at least 1 hour prior to being loaded on a PerkinElmer Opera QEHS.
Image acquisition was performed with a 45 plate capacity loader/stacker and the following settings: 40×0.6 NA air objective, acquisition camera set to 2-by-2 binning for an image size of 688 by 512 pixels, beta-arrestin-GFP acquired using 488 nm laser excitation and 540/75 nm emission filters, DAPI (nuclei) using 365 nm Xenon lamp excitation and 450/50 nm emission filters, 3 fields per well. Image analysis was performed using the Acapella Spot Detection Algorithm. For analysis settings and the metrics employed in the data analyses, please refer to supplemental information.

NTR1, sequence (P30989 whole entry, species assumed): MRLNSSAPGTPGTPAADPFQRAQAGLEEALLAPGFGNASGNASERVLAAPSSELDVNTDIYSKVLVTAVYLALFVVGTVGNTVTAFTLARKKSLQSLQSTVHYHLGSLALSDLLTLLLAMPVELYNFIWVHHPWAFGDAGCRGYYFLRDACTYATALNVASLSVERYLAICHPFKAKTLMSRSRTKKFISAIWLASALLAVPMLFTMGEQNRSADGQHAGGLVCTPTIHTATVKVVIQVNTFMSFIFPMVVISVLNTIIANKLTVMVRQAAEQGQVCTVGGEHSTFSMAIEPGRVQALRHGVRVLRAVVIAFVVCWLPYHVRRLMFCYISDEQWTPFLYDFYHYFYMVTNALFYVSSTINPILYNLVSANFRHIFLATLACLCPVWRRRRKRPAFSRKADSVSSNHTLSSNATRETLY

Compound | EC50 [µM] | Emax [%]
COc1ccccc1CN1CCN(c2nc(C3CC3)nc3cc(OC)c(OC)cc23)CC1 [Compound 343, 2-cyclopropyl-6,7-dimethoxy-4-(4-(2-methoxybenzyl)piperazin-1-yl)quinazoline] | 34.9 ± 4.4 | 100
COc1cc2nc(C3CC3)nc(N3CCN(C(=O)c4ccccc4)CC3)c2cc1OC [Compound 344, (4-(2-cyclopropyl-6,7-dimethoxyquinazolin-4-yl)piperazin-1-yl)(phenyl)methanone] | 45.3 | 100
COc1cc2nc(C3CC3)nc(N3CCN(C(=O)c4ccccc4OC)CC3)c2cc1OC [Compound 345, (4-(2-cyclopropyl-6,7-dimethoxyquinazolin-4-yl)piperazin-1-yl)(2-methoxyphenyl)methanone] | 67.7 ± 5.5 | 100
